According to publication PMC12473689, “Drug Metabolism and Pharmacokinetics of Oxazolo[4,5-c]quinoline Analogs as Novel Interleukin-33 Inhibitors” (Pharmaceutics, 2025):
Like-named read-outs stand apart in the source and are kept apart here.

Test: Pharmacokinetic study after single IV and PO dose
Assay type: in vivo
Conditions: male ICR mice; for bioavailability: oral, 10 mg/kg; for half-life: noncompartmental analysis
Experimental: All animal procedures were reviewed and approved by the Institutional Animal Care and Use Committee (IACUC) of Korea University (Approval No: KUIACUC-2020-0031) and conducted in compliance with the IACUC guidelines. […] In accordance with an approved protocol, mice were euthanized by CO2 asphyxiation at the end of the study. For intravenous (IV) administration, KB-1517 was dissolved in a vehicle of dimethylacetamide/Tween 80/water (5/5/90, v/v/v) at 1 mg/mL. KB-1518 (as TFA salt) was dissolved in DMSO/saline (10/90, v/v) at 1 mg/mL. Mice (n = 4 per group per compound) received a single IV dose of 5 mg/kg via the tail vein (dose volume: 5 mL/kg). For oral (PO) administration, the same formulations were used, and mice (n = 4 per group per compound) received a single dose of 10 mg/kg via oral gavage (dose volume: 10 mL/kg). For intraperitoneal (IP) administration, a suspension of KB-1517 or KB-1518 (0.4 mg/mL in PBS) was prepared by diluting a DMSO stock solution (13 mg/mL). Mice (n = 4 per compound) received a single IP injection of 0.2 mg per animal (dose volume: 500 µL). Serial blood samples (approximately 40 µL) were collected via the saphenous vein into Microvette® 100LH heparinized capillary tubes at selected time points. […] Plasma samples were stored in freezer until LC-MS/MS analysis. Protein precipitation was performed on 15 µL aliquots of plasma samples by adding three volumes of acetonitrile containing diclofenac as an analytical internal standard. The mixture was vortexed thoroughly and centrifuged at 3000× g for 30 min at 4 °C. A 50 µL aliquot of the resulting supernatant was transferred to a 96-well plate and mixed with 50 µL of water. The prepared solutions were analyzed using an Agilent 6460 QQQ LC-MS/MS system (Agilent Technologies Korea Ltd., Seoul, Republic of Korea). Quantitative analysis was performed using an Agilent 1290 Infinity Series HPLC system (Agilent Technologies Korea Ltd., Seoul, Republic of Korea) coupled to an Agilent 6460 QQQ mass spectrometer system (Agilent Technologies Korea Ltd., Seoul, Republic of Korea) with a dual AJS ESI ion source operating in positive ion mode. For chromatographic separation, an Agilent Eclipse Plus C18 column (2.1 × 100 mm, 3.5 µm) (Agilent Technologies Korea Ltd., Seoul, Republic of Korea) protected by a Phenomenex SecurityGuard C18 guard column was used. The mobile phase consisted of (A) 0.1% formic acid in water and (B) 0.1% formic acid in acetonitrile. […] The flow rate was 0.45 mL/min, the injection volume was 3 µL, and the column temperature was 40 °C. The ion source parameters for the mass spectrometer were set as follows: gas temperature 325 °C, gas flow 12 L/min, nebulizer pressure 35 psi, sheath gas temperature 350 °C, and sheath gas flow 10 L/min. Multiple Reaction Monitoring (MRM) transitions were used for quantification: KB-1517: m/z 402 → 72 (CE 10 V); KB-1518: m/z 402 → 72 (CE 5 V); Diclofenac (IS): m/z 296 → 215 (CE 30 V); […] Ranitidine: m/z 315 → 102 (CE 33 V); Itraconazole: m/z 705 → 395 (CE 40 V); […] Data acquisition and processing were performed using Agilent MassHunter Quantitative Analysis software (ver. B.05.00). Calibration curves were constructed using weighted linear regression. Noncompartmental analysis (NCA) was performed using PKSolver to determine pharmacokinetic parameters from the plasma concentration-time data. Parameters included: maximum plasma concentration (Cmax), time to reach Cmax (tmax), terminal elimination half-life (t1/2), area under the plasma concentration-time curve from time zero to the last measurable concentration (AUClast), area under the plasma concentration-time curve extrapolated to infinity (AUCinf), total body clearance (CL), and volume of distribution at steady state (Vss). […] Due to the anomalous profile of KB-1517, AUClast was used for its F calculation, and some parameters (t½, CL, Vss for IV; AUCinf for PO) could not be reliably determined (ND). […]

[1] = mouse, plasma, single IV dose 5 mg/kg, mean ± SD (n = 4)
[2] = mouse, plasma, single PO dose 10 mg/kg, mean ± SD (n = 4)

F (oral bioavailability) (PO 10 mg/kg vs IV 5 mg/kg, calculated from AUCinf) [%]	CL (single IV dose 5 mg/kg, mean ± SD (n = 4), 5 mg/kg) [mL/min/kg]	clearance (male, ICR, mouse, plasma, iv, 5 mg/kg, single IV dose 5 mg/kg, mean ± SD (n = 4)) [mL/min/kg]	Vd (male, ICR, mouse, plasma, iv, 5 mg/kg, single IV dose 5 mg/kg, mean ± SD (n = 4), read-out: Vss) [L/kg]	bioavailability (male, ICR, mouse, plasma, PO 10 mg/kg vs IV 5 mg/kg, calculated from AUCinf, read-out: F (oral bioavailability)) [%]	AUC(0-inf) [1] [ng·h/mL]	AUC(0-t) [1] [ng·h/mL]	AUC(0-inf) [2] [ng·h/mL]	AUC(0-t) [2] [ng·h/mL]	Cmax [2] [ng/mL]	Tmax [2] [h]	half-life (mouse, single IV dose 5 mg/kg, plasma, mean ± SD (n = 4)) [h]	half-life (mouse, single PO dose 10 mg/kg, plasma, mean ± SD (n = 4)) [h]	F (apparent oral bioavailability) (PO 10 mg/kg vs IV 5 mg/kg, calculated using AUClast) [%]	bioavailability (male, ICR, mouse, plasma, PO 10 mg/kg vs IV 5 mg/kg, calculated using AUClast, read-out: F (apparent oral bioavailability)) [%]	Compound
13.6 ± 3.4	25 ± 3.3	~25	~4.6	~14	3460 ± 476	3460 ± 474	942 ± 234	868 ± 267	157 ± 104	1.6 ± 0.8	2.6 ± 0.3	6.2 ± 1.9			CN(C)CCOc1nc2ccccc2c2oc(-c3ccc(C(F)(F)F)cc3)nc12 [KB-1518, N,N-dimethyl-2-((2-(4-(trifluoromethyl)phenyl)oxazolo[4,5-c]quinolin-4-yl)oxy)ethan-1-amine]
						1830 ± 348		4370 ± 738	289 ± 34.1	5.6 ± 3.5			119.3 ± 20.1	> 100	CN(C)CCn1c(=O)c2nc(-c3ccc(C(F)(F)F)cc3)oc2c2ccccc21 [KB-1517, 5-(2-(dimethylamino)ethyl)-2-(4-(trifluoromethyl)phenyl)oxazolo[4,5-c]quinolin-4(5H)-one]
